Ends that are not written are not given here.
What was measured:
GPNMB-positive cells = experiment: Analysis of Gpnmb-dependent luciferase activity (in vivo IVIS imaging); design: species or system Gpnmb-DTR mouse; conditions: Reference Example 1; HFD-fed Gpnmb-DTR mice, DT 50 μg/kg i.p. twice (12 and 14 weeks of age), 16 weeks of age; FIG. 1B
Method: Gpnmb-DTR mouse bred by feeding normal diet or HFD for 4 weeks, and Gpnmb-DTR mouse bred by feeding HFD for 4 weeks, and then injecting DT (50 μg/kg body weight) at 2-week intervals (12 weeks of age and 14 weeks of age) intraperitoneally twice while continuing to feed HFD (16 weeks of age) were subjected to in vivo luciferase imaging analysis using the IVIS imaging system (Perkin Elmer). Mice were shaved ventrally, anesthetized with isoflurane (Wako Pure Chemicals Industries), and injected intraperitoneally with luciferin (150 mg/kg body weight) according to the manufacturer's instructions (Vivo-Glo; Promega). Luciferase activity was monitored 5 minutes after luciferin administration. Signals were analyzed using Living Image software (Perkin Elmer) to quantify luciferase activity. In FIG. 1B, “Before” is a Gpnmb-DTR mouse before HFD was fed (6 weeks of age), “HFD” is a Gpnmb-DTR mouse that was fed with HFD from 6 weeks of age and bred for 6 weeks (12 weeks of age), and “After DT” is a Gpnmb-DTR mouse that was bred by feeding HFD for 4 weeks and then injecting DT (50 μg/kg body weight) at 2-week intervals (12 weeks of age and 14 weeks of age) intraperitoneally twice while continuing to feed HFD (16 weeks of age). […]

GPNMB protein = experiment: Antibody titer by ELISA in plasma of vaccinated mice; type: in vivo, C57BL/6 mice; conditions: vs control vaccine group; KLH-bound peptide 20 μg with Titer Max Gold s.c. at 8 weeks of age, HFD-fed mice; plasma up to 6 weeks; FIG. 2A
Method: First, the antibody titers of the obtained two peptide vaccines were examined. Peptide vaccine 1 or peptide vaccine 2 (20 μg) and Titer Max Gold adjuvant (Titer Max USA) conjugated with KLH as carrier protein for induction of cytotoxic antibody were mixed in two syringes according to the manufacturer's protocol for emulsification. Subsequently, eight-week-old C57BL/6 mice fed with HFD from 4 weeks of age were subcutaneously injected with KLH-binding antigen peptide (20 μg) with a Titer Max Gold adjuvant to induce cytotoxic antibodies. C57BL/6 mice in the control group were subcutaneously injected with a KLH solution (hereinafter, referred to as “control vaccine”) mixed with Titer Max Gold in an equal amount. Plasma was collected from the tail vein of each mouse immediately after administration of the peptide vaccine and after 2, 4, and 6 weeks for antibody titer analysis. The antibody titer produced by injection of each peptide was measured by ELISA. Specifically, first, a 96-well microtiter plate (Nunc-Immuno MicroWell 96-well solid plate, Thermo Scientific) was coated using a carbonate buffer containing peptide vaccine 1 or peptide vaccine 2 bonded to bovine serum albumin (BSA). […] After reacting with the TMB substrate (Sigma-Aldrich, T0440), the optical density was measured at 450 nm (0D450) using a microtiter plate reader (iMark microplate reader, Bio-Rad).

[1] = Metabolic test (glucose tolerance test and insulin tolerance test); type: in vivo, C57BL/6 mice; conditions: HFD-fed mice, 16 weeks of age, s.c. vaccination at 8 weeks of age; compared to control vaccine; FIG. 2I
Method: Mice were bred individually from 1 week before the test. On the day of the glucose tolerance test (GTT), mice were fasted for 6 hours, followed by intraperitoneal injection of glucose at a dose of 1 g/kg (body weight) in the early afternoon. For the insulin tolerance test (ITT), mice were intraperitoneally administered with human insulin (1 U/kg (body weight)). After administration of glucose or insulin, tail venous blood was collected 0, 15, 30, 60 and 120 minutes later, and the blood glucose level was measured with a glucose analyzer (Sanwa Chemical Research Institute).
A metabolic test was performed using the same method as in “5.” of Reference Example 1, except that C57BL/6 mice (16 weeks of age) bred by feeding HFD from 4 weeks of age and administered with peptide vaccine 1, peptide vaccine 2, or control vaccine by subcutaneous injection at a time point of 8 weeks of age were used. In FIG. 2I, “Cont vaccine” is a C57BL/6 mouse administered with a control vaccine, “Gpnmb vaccine 1” is a C57BL/6 mouse administered with peptide vaccine 1, and “Gpnmb vaccine 2” is a C57BL/6 mouse administered with peptide vaccine 2.

diphtheria toxin [DT, reference compound]
abdominal luciferase activity (Gpnmb-dependent) (GPNMB-positive cells): attenuated

RSQHLRFPDR (also: KLH conjugate; listed as Mus musculus) [peptide vaccine 2, peptide of positions 150 to 159 of mouse GPNMB protein]
antibody titer against GPNMB protein (GPNMB protein): slightly higher
metabolic abnormality induced by HFD intake (glucose tolerance test and insulin tolerance test) [1]: significantly improved
